# According to PubChem BioAssay (NCI):
#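 48-hour exposure; five concentrations; linearly interpolated endpoints. At the TGI there is no net growth.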
# What was measured:
# Experiment in all cases: NCI tumour cell line growth inhibition, 48 h
# MALME-3M melanoma = system: MALME-3M melanoma
# U251 CNS = system: U251 CNS
# XF 498 CNS = system: XF 498 CNS
# OVCAR-8 ovarian = system: OVCAR-8 ovarian
# HCT-116 colon = system: HCT-116 colon
# SK-MEL-28 melanoma = system: SK-MEL-28 melanoma
# TK-10 renal = system: TK-10 renal
# HT29 colon = system: HT29 colon
# DMS 114 small cell lung = system: DMS 114 small cell lung
# HOP-62 NSCLC = system: HOP-62 NSCLC
# HCC-2998 colon = system: HCC-2998 colon
# OVCAR-5 ovarian = system: OVCAR-5 ovarian
# CAKI-1 renal = system: CAKI-1 renal
# SK-MEL-2 melanoma = system: SK-MEL-2 melanoma
# A549 NSCLC = system: A549 NSCLC
# KM12 colon = system: KM12 colon
# K-562 leukemia = system: K-562 leukemia
# UACC-62 melanoma = system: UACC-62 melanoma
# SF-539 CNS = system: SF-539 CNS
# NCI-H460 lung = system: NCI-H460 lung
# DMS 273 small cell lung = system: DMS 273 small cell lung
# A498 renal = system: A498 renal
# MOLT-4 leukemia = system: MOLT-4 leukemia
# UACC-257 melanoma = system: UACC-257 melanoma
# RXF 393 renal = system: RXF 393 renal
# RXF-631 renal = system: RXF-631 renal
# UO-31 renal = system: UO-31 renal
# NCI-H226 lung = system: NCI-H226 lung
# CCRF-CEM leukemia = system: CCRF-CEM leukemia
# SF-295 CNS = system: SF-295 CNS
# HCT-15 colon = system: HCT-15 colon
# ACHN renal = system: ACHN renal
# SW-620 colon = system: SW-620 colon
# OVCAR-3 ovarian = system: OVCAR-3 ovarian
# OVCAR-4 ovarian = system: OVCAR-4 ovarian
# SNB-75 CNS = system: SNB-75 CNS
# NCI-H23 lung = system: NCI-H23 lung
# LXFL 529 NSCLC = system: LXFL 529 NSCLC
# HL-60(TB) leukemia = system: HL-60(TB) leukemia
# 786-0 renal = system: 786-0 renal
# IGROV1 ovarian = system: IGROV1 ovarian
# SNB-78 CNS = system: SNB-78 CNS
# EKVX NSCLC = system: EKVX NSCLC
# SK-MEL-5 melanoma = system: SK-MEL-5 melanoma
# M14 melanoma = system: M14 melanoma
# KM20L2 colon = system: KM20L2 colon
# SK-OV-3 ovarian = system: SK-OV-3 ovarian
# DLD-1 colon = system: DLD-1 colon
# HOP-92 NSCLC = system: HOP-92 NSCLC
# M19-MEL melanoma = system: M19-MEL melanoma
# HOP-18 NSCLC = system: HOP-18 NSCLC
# COLO 205 colon = system: COLO 205 colon
# SNB-19 CNS = system: SNB-19 CNS
# RPMI-8226 leukemia = system: RPMI-8226 leukemia
# NCI-H522 lung = system: NCI-H522 lung
# SN12C renal = system: SN12C renal
# SR leukemia = system: SR leukemia
smiles,measurement,setting,value
CCCCCCCCCC1C(C)c2c([nH]c3ccccc23)C2C(=O)N(c3ccccc3)C(=O)C21 (centres undefined),TGI,MALME-3M melanoma,> 100 µM
same,TGI,U251 CNS,26.7 µM
same,TGI,XF 498 CNS,23.2 µM
same,TGI,OVCAR-8 ovarian,> 100 µM
same,TGI,HCT-116 colon,10.2 µM
same,TGI,SK-MEL-28 melanoma,4.7 µM
same,TGI,TK-10 renal,73.5 µM
same,TGI,HT29 colon,22.7 µM
same,TGI,DMS 114 small cell lung,28.4 µM
same,TGI,HOP-62 NSCLC,31.2 µM
same,TGI,HCC-2998 colon,25.7 µM
same,TGI,OVCAR-5 ovarian,31.5 µM
same,TGI,CAKI-1 renal,28.8 µM
same,TGI,SK-MEL-2 melanoma,32.2 µM
same,TGI,A549 NSCLC,> 100 µM
same,TGI,KM12 colon,16.2 µM
same,TGI,K-562 leukemia,15.9 µM
same,TGI,UACC-62 melanoma,33.1 µM
same,TGI,SF-539 CNS,40.6 µM
same,TGI,NCI-H460 lung,13.7 µM
same,TGI,DMS 273 small cell lung,25 µM
same,TGI,A498 renal,33.8 µM
same,TGI,MOLT-4 leukemia,9.44 µM
same,TGI,UACC-257 melanoma,29.3 µM
same,TGI,RXF 393 renal,5.55 µM
same,TGI,RXF-631 renal,11.7 µM
same,TGI,UO-31 renal,26.8 µM
same,TGI,NCI-H226 lung,24.9 µM
same,TGI,CCRF-CEM leukemia,8.05 µM
same,TGI,SF-295 CNS,28.9 µM
same,TGI,HCT-15 colon,23 µM
same,TGI,ACHN renal,22.8 µM
same,TGI,SW-620 colon,> 100 µM
same,TGI,OVCAR-3 ovarian,10.8 µM
same,TGI,OVCAR-4 ovarian,19.1 µM
same,TGI,SNB-75 CNS,26.9 µM
same,TGI,NCI-H23 lung,13.6 µM
same,TGI,LXFL 529 NSCLC,50.4 µM
same,TGI,HL-60(TB) leukemia,13.4 µM
same,TGI,786-0 renal,25.1 µM
same,TGI,IGROV1 ovarian,35.3 µM
same,TGI,SNB-78 CNS,> 100 µM
same,TGI,EKVX NSCLC,> 100 µM
same,TGI,SK-MEL-5 melanoma,31.6 µM
same,TGI,M14 melanoma,28.7 µM
same,TGI,KM20L2 colon,24.9 µM
same,TGI,SK-OV-3 ovarian,33.5 µM
same,TGI,DLD-1 colon,30.2 µM
Cc1c(C(=O)/C=C/c2ccccc2Cl)[n+](=O)c2ccccc2n1[O-],TGI,MALME-3M melanoma,29.2 µM
same,TGI,U251 CNS,27.4 µM
same,TGI,OVCAR-8 ovarian,26.1 µM
same,TGI,HCT-116 colon,22.5 µM
same,TGI,SK-MEL-28 melanoma,31.6 µM
same,TGI,HT29 colon,33.8 µM
same,TGI,DMS 114 small cell lung,20.1 µM
same,TGI,HOP-62 NSCLC,34.2 µM
same,TGI,OVCAR-5 ovarian,35.7 µM
same,TGI,CAKI-1 renal,10.6 µM
same,TGI,SK-MEL-2 melanoma,27.3 µM
same,TGI,A549 NSCLC,33.3 µM
same,TGI,KM12 colon,27.3 µM
same,TGI,HOP-92 NSCLC,28.7 µM
same,TGI,K-562 leukemia,26.5 µM
same,TGI,M19-MEL melanoma,29.1 µM
same,TGI,SF-539 CNS,29.4 µM
same,TGI,NCI-H460 lung,24.4 µM
same,TGI,DMS 273 small cell lung,27.9 µM
same,TGI,HOP-18 NSCLC,28.2 µM
same,TGI,A498 renal,26.9 µM
same,TGI,MOLT-4 leukemia,42 µM
same,TGI,COLO 205 colon,28.8 µM
same,TGI,UACC-257 melanoma,27.2 µM
same,TGI,RXF-631 renal,36.5 µM
same,TGI,UO-31 renal,33.2 µM
same,TGI,NCI-H226 lung,28.8 µM
same,TGI,SF-295 CNS,28 µM
same,TGI,SNB-19 CNS,31 µM
same,TGI,HCT-15 colon,21.7 µM
same,TGI,ACHN renal,31.9 µM
same,TGI,SW-620 colon,24 µM
same,TGI,OVCAR-3 ovarian,29.4 µM
same,TGI,OVCAR-4 ovarian,25.8 µM
same,TGI,RPMI-8226 leukemia,36.1 µM
same,TGI,SNB-75 CNS,30.5 µM
same,TGI,NCI-H23 lung,28.5 µM
same,TGI,LXFL 529 NSCLC,20 µM
same,TGI,HL-60(TB) leukemia,62.8 µM
same,TGI,786-0 renal,25.3 µM
same,TGI,IGROV1 ovarian,31.6 µM
same,TGI,NCI-H522 lung,23.3 µM
same,TGI,SN12C renal,28.4 µM
same,TGI,SNB-78 CNS,44.3 µM
same,TGI,EKVX NSCLC,31.1 µM
same,TGI,SK-MEL-5 melanoma,31.9 µM
same,TGI,M14 melanoma,29 µM
same,TGI,KM20L2 colon,30.6 µM
same,TGI,SK-OV-3 ovarian,35.7 µM
same,TGI,DLD-1 colon,19.8 µM
same,TGI,SR leukemia,51.5 µM
